Results reported in patent publication US6737383B1, “Herbicidal oxadiazolidines” (priority 1999, dated 2004).

Columns and labels:
soybean = assay: Test B pre/postemergence soybean; format: in vivo, Glycine max
Outline: (§1)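 Test chemicals in a non-phytotoxic solvent mixture with surfactant were sprayed preemergence onto planted seeds and postemergence onto plants 2 to 18 cm tall (1- to 4-leaf stage). After twelve to sixteen days in a greenhouse, injury was visually rated against untreated controls from 0 (no effect) to 10 (complete control).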

bamyardgrass = assay: Test B flood test barnyardgrass; format: in vivo, Echinochloa crus-galli
Outline: (§2)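 Flood test on plants grown to the 2-leaf stage; treated plants kept in greenhouse twelve to sixteen days, then visually rated against controls on a 0 (no effect) to 10 (complete control) scale.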

bedstraw = assay: Test B pre/postemergence bedstraw; format: in vivo, Galium aparine
Outline: as §1

duck salad = assay: Test B flood test duck salad; format: in vivo, Heteranthera limosa
Outline: as §2

velvetleaf = assay: Test B pre/postemergence velvetleaf; format: in vivo, Abutilon theophrasti
Outline: as §1

morningglory = assay: Test B pre/postemergence morningglory; format: in vivo, Ipomoea hederacea
Outline: as §1

rape = assay: Test B pre/postemergence rape; format: in vivo, Brassica napus
Outline: as §1

sugar beet = assay: Test B pre/postemergence sugar beet; format: in vivo, Beta vulgaris
Outline: as §1

surinam grass = assay: Test B pre/postemergence surinam grass; format: in vivo, Brachiaria decumbens
Outline: as §1

rice = assay: Test B flood test rice; format: in vivo, Oryza sativa
Outline: as §2

crabgrass = assay: Test B pre/postemergence crabgrass; format: in vivo, Digitaria sanguinalis
Outline: as §1

wild oat = assay: Test B pre/postemergence wild oat; format: in vivo, Avena fatua
Outline: as §1

corn = assay: Test B pre/postemergence corn; format: in vivo, Zea mays
Outline: as §1

cocklebur = assay: Test B pre/postemergence cocklebur; format: in vivo, Xanthium strumarium
Outline: as §1

pigweed = assay: Test B pre/postemergence pigweed; format: in vivo, Amaranthus retroflexus
Outline: as §1

smallflower flatsedge = assay: Test B flood test smallflower flatsedge; format: in vivo, Cyperus difformis
Outline: as §2

[1] = Preemergence, Rate 62 g/ha, scale of 0 to 10 where 0 is no effect and 10 is complete control
[2] = Preemergence, Rate 250 g/ha, scale of 0 to 10 where 0 is no effect and 10 is complete control
[3] = Preemergence, Rate 500 g/ha, scale of 0 to 10 where 0 is no effect and 10 is complete control
[4] = Rate 62 g/ha, Postemergence, scale 0 to 10 (0 no effect, 10 complete control)
[5] = Rate 125 g/ha, Postemergence, scale of 0 to 10 where 0 is no effect and 10 is complete control
[6] = Rate 125 g/ha, Preemergence, scale of 0 to 10 where 0 is no effect and 10 is complete control
[7] = Rate 250 g/ha, Postemergence, scale of 0 to 10 where 0 is no effect and 10 is complete control
[8] = Rate 500 g/ha, Postemergence, scale 0 to 10, 0 no effect, 10 complete control
[9] = Rate 62 g/ha, headed Pre-emergence (flood test species), scale 0 to 10 (0 no effect, 10 complete control)
[10] = Rate 125 g/ha, Pre-emergence, flood test species, scale 0 to 10 where 0 is no effect and 10 is complete control
[11] = Rate 250 g/ha, Pre-emergence, flood-test species, scale 0 to 10, 0 is no effect, 10 is complete control
[12] = Rate 500 g/ha, Pre-emergence, flood test species, scale 0 to 10 (0 no effect, 10 complete control)

CC(C)N(C(=O)n1oc(=O)n(C2CCCC2)c1=O)c1ccccc1 [Compound 283]
7: Soybean plant response rating (soybean; [8]) | Plant response rating, Velvetleaf (velvetleaf; [3]) | Rape plant response rating (rape; [8]) | Plant response rating, Crabgrass (crabgrass; [3]) | Crabgrass plant response rating (crabgrass; [6]) | Plant response rating, Wild oats (wild oat; [3]) | Redroot pigweed plant response rating (pigweed; [8])
9: Plant response rating, Bedstraw (bedstraw; [3]) | Morningglory plant response rating (morningglory; [5]) | Plant response rating, Morningglory (morningglory; [7])
5: Plant response rating, Soybean (soybean; [7]) | Plant response rating, Bedstraw (bedstraw; [7]) | Velvetleaf plant response rating (velvetleaf; [2]) | Plant response rating, Sugarbeets (sugar beet; [3]) | Plant response rating, Redroot pigweed (pigweed; [7]) | S. Flatsedge plant response rating (smallflower flatsedge; [12])
10: Morningglory plant response rating (morningglory; [8]) | B. signalgrass plant response rating (surinam grass; [2]) | Plant response rating, B. signalgrass (surinam grass; [3]) | B. signalgrass plant response rating (surinam grass; [6]) | Redroot pigweed plant response rating (pigweed; [2]) | Plant response rating, Redroot pigweed (pigweed; [3])
4: Soybean plant response rating (soybean; [4]) | Soybean plant response rating (soybean; [5]) | Plant response rating, Rape (rape; [7]) | Wild oats plant response rating (wild oat; [2]) | Redroot pigweed plant response rating (pigweed; [4]) | Redroot pigweed plant response rating (pigweed; [5])
2: Velvetleaf plant response rating (velvetleaf; [6]) | Rape plant response rating (rape; [2]) | Rape plant response rating (rape; [4]) | Sugarbeets plant response rating (sugar beet; [2]) | Sugarbeets plant response rating (sugar beet; [5]) | Plant response rating, Sugarbeets (sugar beet; [7]) | Sugarbeets plant response rating (sugar beet; [8]) | B. signalgrass plant response rating (surinam grass; [8]) | Crabgrass plant response rating (crabgrass; [1]) | Cocklebur plant response rating (cocklebur; [4]) | Cocklebur plant response rating (cocklebur; [5]) | Plant response rating, Cocklebur (cocklebur; [7]) | Cocklebur plant response rating (cocklebur; [8]) | Redroot pigweed plant response rating (pigweed; [1])
8: Morningglory plant response rating (morningglory; [4]) | Plant response rating, Rape (rape; [3])
6: Barnyardgrass plant response rating (bamyardgrass; [11]) | Barnyardgrass plant response rating (bamyardgrass; [12]) | Bedstraw plant response rating (bedstraw; [8]) | B. signalgrass plant response rating (surinam grass; [1]) | Redroot pigweed plant response rating (pigweed; [6])
3: Barnyardgrass plant response rating (bamyardgrass; [10]) | Velvetleaf plant response rating (velvetleaf; [8]) | Rape plant response rating (rape; [5])
0: Soybean plant response rating (soybean; [1]) | Soybean plant response rating (soybean; [2]) | Plant response rating, Soybean (soybean; [3]) | Soybean plant response rating (soybean; [6]) | Barnyardgrass plant response rating (bamyardgrass; [9]) | Bedstraw plant response rating (bedstraw; [1]) | Bedstraw plant response rating (bedstraw; [4]) | Bedstraw plant response rating (bedstraw; [6]) | Ducksalad plant response rating (duck salad; [9]) | Ducksalad plant response rating (duck salad; [10]) | Ducksalad plant response rating (duck salad; [11]) | Ducksalad plant response rating (duck salad; [12]) | Velvetleaf plant response rating (velvetleaf; [1]) | Velvetleaf plant response rating (velvetleaf; [4]) | Velvetleaf plant response rating (velvetleaf; [5]) | Morningglory plant response rating (morningglory; [1]) | Morningglory plant response rating (morningglory; [2]) | Plant response rating, Morningglory (morningglory; [3]) | Morningglory plant response rating (morningglory; [6]) | Rape plant response rating (rape; [1]) | Sugarbeets plant response rating (sugar beet; [1]) | Sugarbeets plant response rating (sugar beet; [4]) | Sugarbeets plant response rating (sugar beet; [6]) | B. signalgrass plant response rating (surinam grass; [4]) | B. signalgrass plant response rating (surinam grass; [5]) | Plant response rating, B. signalgrass (surinam grass; [7]) | Rice plant response rating (rice; [9]) | Rice plant response rating (rice; [10]) | Rice plant response rating (rice; [11]) | Crabgrass plant response rating (crabgrass; [4]) | Crabgrass plant response rating (crabgrass; [5]) | Wild oats plant response rating (wild oat; [1]) | Wild oats plant response rating (wild oat; [4]) | Wild oats plant response rating (wild oat; [5]) | Plant response rating, Wild oats (wild oat; [7]) | Wild oats plant response rating (wild oat; [8]) | Corn plant response rating (corn; [1]) | Corn plant response rating (corn; [2]) | Plant response rating, Corn (corn; [3]) | Corn plant response rating (corn; [4]) | Corn plant response rating (corn; [5]) | Corn plant response rating (corn; [6]) | Plant response rating, Corn (corn; [7]) | Corn plant response rating (corn; [8]) | Cocklebur plant response rating (cocklebur; [1]) | Cocklebur plant response rating (cocklebur; [2]) | Plant response rating, Cocklebur (cocklebur; [3]) | Cocklebur plant response rating (cocklebur; [6]) | S. Flatsedge plant response rating (smallflower flatsedge; [9]) | S. Flatsedge plant response rating (smallflower flatsedge; [10]) | S. Flatsedge plant response rating (smallflower flatsedge; [11])
1: Bedstraw plant response rating (bedstraw; [2]) | Bedstraw plant response rating (bedstraw; [5]) | Plant response rating, Velvetleaf (velvetleaf; [7]) | Rice plant response rating (rice; [12]) | Plant response rating, Crabgrass (crabgrass; [7]) | Crabgrass plant response rating (crabgrass; [8])
